Data published in patent US12565505B2, “mTORC modulators and uses thereof” (Aeovian Pharmaceuticals, Inc., priority 2019, dated 2026).

Assays:
mTORC1 = target: T1, mTORC1 (Homo sapiens, UniProt P42345+P62942); experiment: Inhibition assay for mTORC1: phosphorylation of pS6K at Thr389, AlphaLISA SureFire in PC3 cells; type: cell-based; settings: PC3 cells, 24 hours treatment, pS6K Thr389, analogs substituted at C40 and C16 (C16 diastereomer mixtures not isolated); for IC50: read-out: pIC50 mTORC1 (converted)
T1 construct: endogenous in cells; host or cells: PC3 cells (human prostate adenocarcinoma)
Outline: (§1)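 Human prostate adenocarcinoma PC3 cells treated with compounds for 24 h. AlphaLISA SureFire read-out of pS6K Thr389 for mTORC1 and pAkt Ser473 for mTORC2, from which IC50s were derived.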

mTORC2 = target: T2, mTORC2 (Homo sapiens, UniProt P42345+P62942); experiment: Inhibition assay for mTORC2: phosphorylation of pAkt at Ser473, AlphaLISA SureFire in PC3 cells; type: cell-based; settings: PC3 cells, 24 hours treatment, analogs substituted at C40 and C16 (C16 diastereomer mixtures not isolated); for IC50: read-out: pIC50 mTORC2 (converted)
T2 construct: endogenous in cells; host or cells: PC3 cells (human prostate adenocarcinoma)
Outline: as §1

Row | Compound | IC50 (mTORC1) [µM] | IC50 (mTORC2) [µM] | pIC50 mTORC1 (mTORC1) | pIC50 mTORC2 (mTORC2)
1 | CO[C@@H]1C[C@H](C[C@@H](C)[C@@H]2CC(=O)[C@H](C)/C=C(\C)[C@@H](O)[C@@H](OC)C(=O)[C@H](C)C[C@H](C)/C=C/C=C/C=C(\C)C(OCCc3ccccc3)C[C@@H]3CC[C@@H](C)[C@@](O)(O3)C(=O)C(=O)N3CCCCC3C(=O)O2)CC[C@H]1OC(=O)N(C)CCCN(C)C (stereo partly drawn) [Compound 95] | < 0.000316 | < 1 | – | –
2 | CO[C@@H]1C[C@H](C[C@@H](C)[C@@H]2CC(=O)[C@H](C)/C=C(\C)[C@@H](O)[C@@H](OC)C(=O)[C@H](C)C[C@H](C)/C=C/C=C/C=C(\C)C(OCC3CCOCC3)C[C@@H]3CC[C@@H](C)[C@@](O)(O3)C(=O)C(=O)N3CCCCC3C(=O)O2)CC[C@H]1OCCO (stereo partly drawn) [Compound 86] | 0.000316 to 0.00316 | 1 to 10 | – | –
3 | CO[C@@H]1C[C@H](C[C@@H](C)[C@@H]2CC(=O)[C@H](C)/C=C(\C)[C@@H](O)[C@@H](OC)C(=O)[C@H](C)C[C@H](C)/C=C/C=C/C=C(\C)C(OC(C)C)C[C@@H]3CC[C@@H](C)[C@@](O)(O3)C(=O)C(=O)N3CCCCC3C(=O)O2)CC[C@H]1OC(=O)NCCc1ccccc1 (stereo partly drawn) [Compound 80] | 0.000316 to 0.00316 | > 10 | – | –
4 | (1R,9S,12SR,15R,16E,18R,19R,21R,23S,24E,26E,28E,32SR,35R)-1,18-dihydroxy-30-(3-hydroxypropoxy)-19-methoxy-12-[(1R)-2-[(1S,3R,4R)-3-methoxy-4-(3-phenylpropoxy)cyclohexyl]-1-methyl-ethyl]-15,17,21,23,29,35-hexamethyl-11,36-dioxa-4-azatricyclo[30.3.1.0^4,9]hexatriaconta-16,24,26,28-tetraene-2,3,10,14,20-pentone [Compound 67] | – | – | B (8.5 to 9.5 as B) | A (PIC50 for mTORC2 of <5 as A)
5 | COCCCCOC1C[C@@H]2CC[C@@H](C)[C@@](O)(O2)C(=O)C(=O)N2CCCCC2C(=O)O[C@H]([C@H](C)C[C@@H]2CC[C@@H](OCCCO)[C@H](OC)C2)CC(=O)[C@H](C)/C=C(\C)[C@@H](O)[C@@H](OC)C(=O)[C@H](C)C[C@H](C)/C=C/C=C/C=C/1C (stereo partly drawn) [Compound 70, (1R,9S,12S,15R,16E,18R,19R,21R,23S,24E,26E,28E,32S,35R)-1,18-dihydroxy-12-[(1R)-2-[(1S,3R,4R)-4-(3-hydroxypropoxy)-3-methoxy-cyclohexyl]-1-methyl-ethyl]-19-methoxy-30-(4-methoxybutoxy)-15,17,21,23,29,35-hexamethyl-11,36-dioxa-4-azatricyclo[30.3.1.0^4,9]hexatriaconta-16,24,26,28-tetraene-2,3,10,14,20-pentone] | < 0.000316 | 1 to 10 | – | –
6 | CO[C@@H]1C[C@H](C[C@@H](C)[C@@H]2CC(=O)[C@H](C)/C=C(\C)[C@@H](O)[C@@H](OC)C(=O)[C@H](C)C[C@H](C)/C=C/C=C/C=C(\C)C(OCCO)C[C@@H]3CC[C@@H](C)[C@@](O)(O3)C(=O)C(=O)N3CCCCC3C(=O)O2)CC[C@H]1OC(=O)NCCn1cnnn1 (stereo partly drawn) [Compound 89] | 0.000316 to 0.00316 | 1 to 10 | – | –
7 | COCCOC1C[C@@H]2CC[C@@H](C)[C@@](O)(O2)C(=O)C(=O)N2CCCCC2C(=O)O[C@H]([C@H](C)C[C@@H]2CC[C@@H](OCCCN3CCO[C@H](C)C3)[C@H](OC)C2)CC(=O)[C@H](C)/C=C(\C)[C@@H](O)[C@@H](OC)C(=O)[C@H](C)C[C@H](C)/C=C/C=C/C=C/1C (stereo partly drawn) [Compound 36] | < 0.000316 | 1 to 10 | – | –
8 | COCCOC1C[C@@H]2CC[C@@H](C)[C@@](O)(O2)C(=O)C(=O)N2CCCCC2C(=O)O[C@H]([C@H](C)C[C@@H]2CC[C@@H](OCCCO)[C@H](OC)C2)CC(=O)[C@H](C)/C=C(\C)[C@@H](O)[C@@H](OC)C(=O)[C@H](C)C[C@H](C)/C=C/C=C/C=C/1C (stereo partly drawn) [Compound 28] | < 0.000316 | 1 to 10 | – | –
9 | COCCOC1C[C@@H]2CC[C@@H](C)[C@@](O)(O2)C(=O)C(=O)N2CCCCC2C(=O)O[C@H]([C@H](C)C[C@@H]2CC[C@@H](OCCOC)[C@H](OC)C2)CC(=O)[C@H](C)/C=C(\C)[C@@H](O)[C@@H](OC)C(=O)[C@H](C)C[C@H](C)/C=C/C=C/C=C/1C (stereo partly drawn) [Compound 29] | < 0.000316 | > 10 | – | –
10 | CO[C@@H]1C[C@H](C[C@@H](C)[C@@H]2CC(=O)[C@H](C)/C=C(\C)[C@@H](O)[C@@H](OC)C(=O)[C@H](C)C[C@H](C)/C=C/C=C/C=C(\C)C(OCCc3ccccc3)C[C@@H]3CC[C@@H](C)[C@@](O)(O3)C(=O)C(=O)N3CCCCC3C(=O)O2)CC[C@H]1OC(=O)NCCn1cnnn1 (stereo partly drawn) [Compound 114] | < 0.000316 | < 1 | – | –
11 | CO[C@@H]1C[C@H](C[C@@H](C)[C@@H]2CC(=O)[C@H](C)/C=C(\C)[C@@H](O)[C@@H](OC)C(=O)[C@H](C)C[C@H](C)/C=C/C=C/C=C(\C)C(OCCc3ccccc3)C[C@@H]3CC[C@@H](C)[C@@](O)(O3)C(=O)C(=O)N3CCCCC3C(=O)O2)CC[C@H]1OCCCO (stereo partly drawn) [Compound 94, (1R,9S,12SR,15R,16E,18R,19R,21R,23S,24E,26E,28E,32S,35R)-1,18-dihydroxy-12-[(1R)-2-[(1S,3R,4R)-4-(3-hydroxypropoxy)-3-methoxy-cyclohexyl]-1-methyl-ethyl]-19-methoxy-15,17,21,23,29,35-hexamethyl-30-(2-phenylethoxy)-11,36-dioxa-4-azatricyclo[30.3.1.0^4,9]hexatriaconta-16,24,26,28-tetraene-2,3,10,14,20-pentone] | < 0.000316 | 1 to 10 | – | –
12 | CO[C@@H]1C[C@H](C[C@@H](C)[C@@H]2CC(=O)[C@H](C)/C=C(\C)[C@@H](O)[C@@H](OC)C(=O)[C@H](C)C[C@H](C)/C=C/C=C/C=C(\C)C(OCCc3ccccc3)C[C@@H]3CC[C@@H](C)[C@@](O)(O3)C(=O)C(=O)N3CCCCC3C(=O)O2)CC[C@H]1OC(=O)NCCc1c[nH]cn1 (stereo partly drawn) [Compound 110] | < 0.000316 | < 1 | – | –
13 | COCCOC1C[C@@H]2CC[C@@H](C)[C@@](O)(O2)C(=O)C(=O)N2CCCCC2C(=O)O[C@H]([C@H](C)C[C@@H]2CC[C@@H](OC(=O)N(C)CCN3CCOCC3)[C@H](OC)C2)CC(=O)[C@H](C)/C=C(\C)[C@@H](O)[C@@H](OC)C(=O)[C@H](C)C[C@H](C)/C=C/C=C/C=C/1C (stereo partly drawn) [Compound 25] | < 0.000316 | 1 to 10 | – | –
14 | COCCCCOC1C[C@@H]2CC[C@@H](C)[C@@](O)(O2)C(=O)C(=O)N2CCCCC2C(=O)O[C@H]([C@H](C)C[C@@H]2CC[C@@H](OCCO)[C@H](OC)C2)CC(=O)[C@H](C)/C=C(\C)[C@@H](O)[C@@H](OC)C(=O)[C@H](C)C[C@H](C)/C=C/C=C/C=C/1C (stereo partly drawn) [Compound 102] | < 0.000316 | 1 to 10 | – | –
15 | CO[C@@H]1C[C@H](C[C@@H](C)[C@@H]2CC(=O)[C@H](C)/C=C(\C)[C@@H](O)[C@@H](OC)C(=O)[C@H](C)C[C@H](C)/C=C/C=C/C=C(\C)C(OCC(C)(C)O)C[C@@H]3CC[C@@H](C)[C@@](O)(O3)C(=O)C(=O)N3CCCCC3C(=O)O2)CC[C@H]1OCCO (stereo partly drawn) [Compound 91] | 0.000316 to 0.00316 | 1 to 10 | – | –
